Experimental data reported in paper PMC9108036 (Biomedicine & Pharmacotherapy, 2022).
Like-named read-outs stand apart in the source and are kept apart here.

How the values were obtained:
in vitro = assay type: cell-based; settings: human
[1] = system: Omicron SARS-CoV-2 lentiviral pseudovirus; assay type: cell-based
[2] = Omicron pseudovirus, CaCo2 cells

`O=c1[nH]cc(F)c(=O)[nH]1` [Fluorouracil] showed a viability at 10 µM (in vitro) of 97 ± 1.7%.
With `CSc1ccc2c(c1)N(CCC1CCCCN1C)c1ccccc1S2` (centres unmarked) [Thioridazine] the “inhibition of Omicron pseudovirus entry (in words)” value (shortened to “inhibition”) [1] was “enhanced inhibitory effects”.
`Nc1nc(Cl)nc2c1ncn2[C@H]1C[C@H](O)[C@@H](CO)O1` [Cladribine] showed a viability at 10 µM (in vitro) of 108 ± 2.7%.
In the case of `COC(=O)C1=C(C)NC(C)=C(C(=O)OCCCN2CCC(c3ccccc3)(c3ccccc3)CC2)[C@@H]1c1cccc([N+](=O)[O-])c1` [Dexniguldipine], the “inhibition” value [1] is reported as “strong inhibition”.
For `CCCCC[C@H](O)/C=C/[C@H]1[C@H](O)CC(=O)[C@@H]1CCCCCCC(=O)O` [Alprostadil], the viability at 10 µM (in vitro) was 100 ± 2.9%.
In the case of `CN1CCN(CCCN2c3ccccc3Sc3ccc(C(F)(F)F)cc32)CC1` [Trifluoperazine], the “inhibition” value [1, 2] is reported as “enhanced inhibitory effects”.
With `Clc1ccc(COC(Cn2ccnc2)c2ccc(Cl)cc2Cl)cc1` (centres unmarked) [Econazole] the viability at 10 µM (in vitro) was 88.2 ± 1.8%.
For `CN(C)CCCN1c2ccccc2CCc2ccc(Cl)cc21` [Clomipramine], the “inhibition” value [1] was “enhanced inhibitory effects”.
With `CC(=O)O[C@@]12CO[C@@H]1C[C@H](O)[C@@]1(C)C(=O)[C@H](O)C3=C(C)[C@@H](OC(=O)[C@H](O)[C@@H](NC(=O)OC(C)(C)C)c4ccccc4)C[C@@](O)([C@@H](OC(=O)c4ccccc4)[C@H]21)C3(C)C` [Docetaxel] the viability at 10 µM (in vitro) was 80.8 ± 3%.
With `CN(C)CCCN1c2ccccc2Sc2ccc(Cl)cc21` [Chlorpromazine] the viability at 10 µM (in vitro) was 88.6 ± 4.3% and the “inhibition” value [1, 2] was “enhanced inhibitory effects”.
